Earlier results on one molecule are cited in patent publication US20120264961A1, “FE3O4-M(AU-LIKE)-NANOPARTICLES FOR ANTIBODY-CONSERVING TARGET-SPECIFIC PLATIN DELIVERY” (Brown University, priority 2009, published 2012).

For this data set the following is noted: water solubility.

On to `N.N.O=C([O-])C1(C(=O)[O-])CCC1.[Pt+2]` [carboplatin], for which the solubility was 22 mg/mL.

In general, solubility refers to the dissolved amount per volume that the medium holds.
